{
  "source": "patent US6683079B2",
  "about": "“3-(amino-or aminoalkyl) pyridinone derivatives and their use for the treatment of HIV related diseases” (Centre National de la Recherche Scientifique, priority 1998, dated 2004)",
  "key": {"HIV-LAI wild type": {"system": "HIV-LAI wild type", "test": "Antiviral activity on HIV-LAI wild type", "type": "cell-based, HIV-1", "details": "HIV-LAI wild type", "description": "(§1) The antiviral activity, the expression and purification of the recombinant HIV-RT enzyme, the reverse transcriptase activities and the inhibition of RT were evaluated as described in WO 97/05 113.\n(§2) The antiviral activity of the compounds according to example 1 has been tested on various strains."}, "[1]": {"test": "Antiviral activity on HIV-LAI wild type", "type": "cell-based, HIV-1", "details": "HIV-LAI wild type test", "description": "as §1, §2"}, "HIV-1 AZTres./MT4": {"system": "HIV-1 AZTres./MT4", "test": "Anti HIV-1 activity, HIV-1 AZT-resistant strain in MT4 cells", "type": "cell-based", "details": "Human immunodeficiency virus 1, MT4", "description": "as §1\n(§3) The compound of example 1 has been also tested on various HIV strains and primary cell cultures. The table 1 illustrates the activity of this compound on these strains."}, "HIV-ILai isolate": {"system": "HIV-ILai isolate", "test": "Retrovirucidal effect (residual infectivity on P4 cells)", "type": "cell-based, HIV-1", "details": "3 hours with virions", "description": "The retrovirucidal effect and the reverse transcription were measured as described hereinafter.\nHIV-1 viral suspensions were obtained by coculture of MT4 cells and H9 cells chronically infected by HIV-ILai isolate. 200 μl of a cell supernatant containing viral particles (HIV-ILai: 100 TCID50) were incubated at room temperature with various concentrations of different inhibitors. After 3 hours, virions were washed through 0.02 μm anopore membrane in 1.5 mL Vectaspin tube (Whatman) for 10 minutes at 5 000 g. Each of the three subsequent washes was performed in the same conditions after the viral concentrate was refilled with 500 μL of RPMI medium. Then, the viral concentrate was readjusted to the initial volume with RPMI plus 10% foetal calf serum (FCS). The residual infectivity was assayed on P4 cells as described by CHARNEAU et al. (1994, J. Mol. Biol., 241, 651-662). Briefly, P4 cells were plated using 100 μL of DMEM medium plus 10% FCS in 96 plate multi-wells at 20×10^5 cells per mL. After overnight incubation at 37° C., the supernatant was discarded and the viral preparation (200 μL) was added. One day later the wells were washed three times in PBS. Each well was refilled with 200 μL of a reaction buffer containing 50 mM Tris-HCl pH 8.5, 100 mM 2-mercaptoethanol, 0.05% Triton X-100 and 5 mM 4-methylumbelliferyl β-D-galactopyranoside (MUG). After 3 hours at 37° C., the level of the reaction was measured in a fluorescence microplate reader.\nThe retrovirucidal effect of the compound according to example 1 has been tested."}, "HIV-1 IIIIB/MT4": {"system": "HIV-1 IIIIB/MT4", "test": "Anti HIV-1 activity, HIV-1 IIIB in MT4 cells", "type": "cell-based", "details": "Human immunodeficiency virus 1", "description": "as §1, §3"}, "[2]": {"test": "Anti HIV-1 activity, HIV-1 IIIB in MT4 cells", "type": "cell-based", "details": "human; HIV-1 IIIIB/MT4", "description": "as §1, §3"}, "[3]": {"system": "HIV-1 Bal/Mono/macrophages", "test": "Anti HIV-1 activity, HIV-1 Bal in monocytes/macrophages", "type": "cell-based", "details": "Human immunodeficiency virus 1, Macrophage", "description": "as §1, §3"}, "[4]": {"test": "Anti HIV-1 activity, HIV-1 Bal in monocytes/macrophages", "type": "cell-based", "details": "HIV-1 Bal/Mono/macrophages", "description": "as §1, §3"}, "[5]": {"test": "Antiviral activity on HIV-1 nevirapine resistant strain", "type": "cell-based", "details": "HIV-1 novirapine resistant strain test", "description": "as §1\n(§4) On an HIV-1 novirapine resistant strain the activities of the compound of example 1 are as follows: […]"}, "[6]": {"system": "HIV-1 novirapine resistant strain", "test": "Antiviral activity on HIV-1 nevirapine resistant strain", "type": "cell-based", "details": "Human immunodeficiency virus 1", "description": "as §1, §4"}, "HIV-2 D 194/PBMC": {"system": "HIV-2 D 194/PBMC", "test": "Anti HIV activity, HIV-2 D 194 in PBMC", "type": "cell-based", "details": "Human immunodeficiency virus 2", "description": "as §1, §3"}, "[7]": {"test": "Anti HIV activity, HIV-2 D 194 in PBMC", "type": "cell-based", "details": "HIV-2 D 194/PBMC", "description": "as §1, §3"}, "[8]": {"target": "T1, recombinant HIV-RT enzyme (Human immunodeficiency virus type 1 group M subtype B, UniProt P03366)", "T1 construct": "the recombinant HIV-RT enzyme; made in house", "test": "Inhibition of the reverse transcriptase", "type": "biochemical", "description": "as §1\nThe IC50 of the compound of example 1 for the inhibition of the reverse transcriptase is 20 nM."}, "[9]": {"test": "Anti HIV-1 activity, HIV-1 IIIB in PBMC", "type": "cell-based", "details": "HIV-1 IIIB/PBMC", "description": "as §1, §3"}, "HIV-1 IIIB/PBMC": {"system": "HIV-1 IIIB/PBMC", "test": "Anti HIV-1 activity, HIV-1 IIIB in PBMC", "type": "cell-based", "details": "Human immunodeficiency virus 1", "description": "as §1, §3"}},
  "data": [
    {"smiles": "CCc1c(C)[nH]c(=O)c(N(C)C)c1Cc1cc(C)cc(C)c1", "note": "[Example 1, 3-dimethylamino-4-(3,5-dimethylbenzyl)-5-ethyl-6-methylpyridin-2(1H)-one]", "values": [
      {"measurement": "S.I.", "setting": "HIV-LAI wild type", "value": "> 33.333"},
      {"measurement": "IC50", "setting": "HIV-LAI wild type; Human immunodeficiency virus 1", "value": 0.2, "unit": "nM"},
      {"measurement": "CC50", "setting": "[1]", "value": "> 100000", "unit": "nM"},
      {"measurement": "IC50", "setting": "HIV-1 AZTres./MT4", "value": 0.2, "unit": "nM"},
      {"measurement": "% inhibition of infectivity", "setting": "HIV-ILai isolate; 1 μm compound", "value": 83, "unit": "%"},
      {"measurement": "% inhibition of infectivity", "setting": "HIV-ILai isolate; 10 μm compound", "value": 99, "unit": "%"},
      {"measurement": "inhibition at 0.01 µM", "setting": "HIV-ILai isolate; Human immunodeficiency virus 1, 10 nM compound", "value": 26, "unit": "%"},
      {"measurement": "inhibition at 0.1 µM", "setting": "HIV-ILai isolate; Human immunodeficiency virus 1, 100 nM compound", "value": 46, "unit": "%"},
      {"measurement": "IC50", "setting": "HIV-1 IIIIB/MT4", "value": 2.4, "unit": "nM"},
      {"measurement": "CC50", "setting": "[2]", "value": "> 1000", "unit": "nM"},
      {"measurement": "IC50", "setting": "[3]", "value": 0.004, "unit": "nM"},
      {"measurement": "CC50", "setting": "[4]", "value": "> 1000", "unit": "nM"},
      {"measurement": "CC50", "setting": "[5]", "value": "> 10000", "unit": "nM"},
      {"measurement": "IC50", "setting": "[6]", "value": "> 10000", "unit": "nM"},
      {"measurement": "IC50", "setting": "HIV-2 D 194/PBMC", "value": "> 1000", "unit": "nM"},
      {"measurement": "CC50", "setting": "[7]", "value": "> 1000", "unit": "nM"},
      {"measurement": "IC50", "setting": "[8]", "value": 20, "unit": "nM"},
      {"measurement": "CC50", "setting": "[9]", "value": "> 1000", "unit": "nM"},
      {"measurement": "IC50", "setting": "HIV-1 IIIB/PBMC", "value": 0.58, "unit": "nM"}
    ]}
  ]
}
